For 5 molecules, IC50 and viability, T/C results are on record in PubChem BioAssay AID2060491 (Molecular Pharmacology Branch, DTP, NCI, 2025).

Where “and” joins values, the source holds several entries; their conditions need not be identical. Equal values may be shown once. Bounds are passed on as bounds.

In this assay the test system is 857933-349-R-J2-PDC complex spheroids, viability. Kind of assay: Anticancer human tumor 857933-349-R-J2-PDC patient-derived colon adenocarcinoma cell line growth inhibition [GQUAD]. The settings on record: for viability, T/C: stronger effect = lower value. The text has this: DNA G-quadruplex Stabilizer Agents in Combinations in Complex Spheroids
A high-throughput screen of multi-cell type tumor spheroids was designed to identify active combinations of DNA G-quadruplex stabilizer agents and targeted small molecules. Complex spheroids include a stromal component modeled by human endothelial cells (HUVEC) and fibroblasts modeled by human mesenchymal stem cells (MSCs). The concentration ranges selected for each drug and investigational agent were based upon clinically achievable concentrations if the clinical Cmax of the agent was known.
Compounds. The drugs and investigational agents: pidnarulex (CX-5461; NSC782164), APTO-253 (NSC789042), BRACO-19 (NSC847499), peposertib (NSC802822), ceralasertib (NSC780249), elimusertib (NSC800525), camonsertib (NSC841442), AZD-1390 (NSC803789), olaparib (NSC753686), talazoparib (NSC767125), ART-558 (NSC835418), sotorasib (NSC818433), MRTX-1133 (NSC836407), SN-38 (NSC673596), topotecan (NSC609699), etoposide (NSC141540), doxorubicin (NSC123127), gemcitabine (NSC613327), 5-fluorouracil (NSC19893), paclitaxel (NSC125973), vemurafenib (NSC761431), panobinostat (NSC761190), R-306465 (JNJ-16241199; NSC773264), adavosertib (NSC754352), TP-3654 (NSC805149), carboplatin (NSC241240), KSQ-4279 (NSC840948), and staurosporine (NSC755774) were obtained from the National Cancer Institute (NCI) Developmental Therapeutics Program Chemical Repository (34). The FDA-approved anticancer drug set is available from the NCI Developmental Therapeutics Program. […] The stock solutions were prepared in dimethyl sulfoxide (DMSO, Sigma-Aldrich, St. Louis, MO, cat. D2650) at 800-fold the tested concentration and stored at -70 degrees C prior to their use. All drugs and investigational agents were tested over a range starting from a high concentration at or near the clinical Cmax and decreasing in half-log increments. If the clinical Cmax for an agent had not been determined, the highest concentration tested was 10 microM.
2.3 Cell Culture. All cells were maintained in an incubator at 37 degrees C and 5% CO2 with 95% humidity. The PDC lines were cultured according to standard operating procedures established by the NCI PDMR. All PDCs were thawed and cultured in Matrigel-coated flasks prepared with a working solution of 1X Ham's F-12 nutrient mix, without supplementation (Invitrogen, cat. 11765054), 100 U/mL penicillin-streptomycin (Invitrogen, cat. 15140122), and 2.5% Matrigel (Corning Inc., cat. 354248) for the first three passages. The 857933-349-R-J2-PDC line was cultured in 6C/Colon 1B media, which includes advanced DMEM/F-12 (Thermo Fisher Scientific, cat. 12634028), 10 mM HEPES (Thermo Fisher Scientific, cat. 15630080), 1X GlutaMAX supplement (Thermo Fisher Scientific, cat. 35050061), 0.1 mg/mL primocin (InvivoGen, cat. ant-pm-2), 10% defined fetal bovine serum, heat inactivated (HyClone Laboratories Inc., cat. SH30070.03HI), 50% L-WRN conditioned media (ATCC, cat. CRL-3276), 1.25 mM N-Acetyl-L-cysteine (Sigma-Aldrich, cat. A9165), 10 mM nicotinamide (Sigma-Aldrich, cat. N0636), 1X B-27 supplement (Thermo Fisher Scientific, cat. 17504044), 1X N-2 supplement (Thermo Fisher Scientific, cat. 17502048), 10 microM Y-27632 dihydrochloride (Tocris Bioscience, cat. 1254), and 50 ng/mL human EGF recombinant protein (Thermo Fisher Scientific, cat. PHG0311). The 485176-168-R4-J1-PDC line was cultured in Panc media, which includes all 6C/Colon 1B media components plus 100 ng/mL human FGF-10 (Thermo Fisher Scientific, cat. 100-26), 500 nM SB-431542 (Selleckchem, cat. S1067), and gastrin (Tocris, cat. 3006).
[…]

[1] abbreviates: curve of first compound, second compound 0.0316 µM.
Where [2] appears, read: curve of first compound, second compound 0.1 µM.
Where [3] appears, read: curve of first compound, second compound 0.316 µM.
[4] abbreviates: curve of first compound, second compound 1 µM.
Setting [5] is: curve of first compound, second compound 3.16 µM.
[6] abbreviates: curve of first compound, second compound 10 µM.
Where [7] appears, read: second compound 0.0316 µM, first compound 0.0316 µM.
The mark [8] stands for this setting: second compound 0.0316 µM, first compound 0.316 µM.
Where [9] appears, read: second compound 0.1 µM, first compound 0.0316 µM.
The mark [10] stands for this setting: second compound 0.1 µM, first compound 0.316 µM.
[11] abbreviates: second compound 0.316 µM, first compound 0.0316 µM.
The mark [12] stands for this setting: second compound 0.316 µM, first compound 0.316 µM.
[13] abbreviates: second compound 1 µM, first compound 0.0316 µM.
Where [14] appears, read: second compound 1 µM, first compound 0.316 µM.
Where [15] appears, read: second compound 3.16 µM, first compound 0.0316 µM.
Where [16] appears, read: second compound 3.16 µM, first compound 0.316 µM.
Where [17] appears, read: second compound 10 µM, first compound 0.0316 µM.
Setting [18] is: second compound 10 µM, first compound 0.316 µM.
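Also: spheroids exposed to compounds for one week before readout.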
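For viability, T/C in this document: percent viability relative to vehicle DMSO wells taken as 100%.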

Turning to `Cn1ncnc1[C@H]1c2n[nH]c(=O)c3cc(F)cc(c23)N[C@@H]1c1ccc(F)cc1` + Cc1[nH]c2ccc(F)cc2c1-c1nc2c3cccnc3c3ncccc3c2[nH]1, the IC50 reads like this: under setting [1], greater than 0.316 µM; under setting [2], greater than 0.316 µM; under setting [3], greater than 0.316 µM; under setting [4], greater than 0.316 µM; under setting [5], greater than 0.316 µM; under setting [6], greater than 0.316 µM. For the same molecule, the viability, T/C runs as follows: (second compound 0.0316 µM, first compound 0.000999 µM) 104%; (second compound 0.0316 µM, first compound 0.00316 µM) 86%; (second compound 0.0316 µM, first compound 0.00999 µM) 103%; under setting [7], 89.7%; (second compound 0.0316 µM, first compound 0.0999 µM) 106%; under setting [8], 109%. The viability, T/C reads like this: (second compound 0.1 µM, first compound 0.000999 µM) 95.8%; (second compound 0.1 µM, first compound 0.00316 µM) 105%; (second compound 0.1 µM, first compound 0.00999 µM) 98%; under setting [9], 92.7%; (second compound 0.1 µM, first compound 0.0999 µM) 102%; under setting [10], 104%. The viability, T/C runs as follows: (second compound 0.316 µM, first compound 0.000999 µM) 97.3%; (second compound 0.316 µM, first compound 0.00316 µM) 112%; (second compound 0.316 µM, first compound 0.00999 µM) 97%; under setting [11], 104%; (second compound 0.316 µM, first compound 0.0999 µM) 102%; under setting [12], 98.6%. For the same molecule, the viability, T/C was 96.1% (second compound 1 µM, first compound 0.000999 µM); 101% (second compound 1 µM, first compound 0.00316 µM); 97.4% (second compound 1 µM, first compound 0.00999 µM); 95.8% under setting [13]; 104% (second compound 1 µM, first compound 0.0999 µM); 94.8% under setting [14]. Moreover, the viability, T/C (second compound 3.16 µM, first compound 0.000999 µM) is 92.2%; the viability, T/C (second compound 3.16 µM, first compound 0.00316 µM) is 101%; the viability, T/C (second compound 3.16 µM, first compound 0.00999 µM) is 91.9%; the viability, T/C under setting [15] was 103%; the viability, T/C (second compound 3.16 µM, first compound 0.0999 µM) is 114%; the viability, T/C under setting [16] is 96.9%. In addition, the viability, T/C is 102% (second compound 10 µM, first compound 0.000999 µM); 99.3% (second compound 10 µM, first compound 0.00316 µM); 97.1% (second compound 10 µM, first compound 0.00999 µM); 99.2% under setting [17]; 104% (second compound 10 µM, first compound 0.0999 µM); 94.6% under setting [18].

As to `Nc1ccn(C2OC(CO)C(O)C2(F)F)c(=O)n1` (centres undefined) + Cc1[nH]c2ccc(F)cc2c1-c1nc2c3cccnc3c3ncccc3c2[nH]1, the IC50 under setting [1] came out at 0.337 µM; the IC50 under setting [2] came out at 0.153 µM; the IC50 under setting [3] was 0.339 µM; the IC50 under setting [4] came to 0.169 µM; the IC50 under setting [5] was determined as 0.27 µM; the IC50 under setting [6] amounted to 0.255 µM. The viability, T/C under setting [7] was 73.6%; the viability, T/C (second compound 0.0316 µM, first compound 0.1 µM) was 50.7%; the viability, T/C under setting [8] was 53%; the viability, T/C (second compound 0.0316 µM, first compound 1 µM) is 12.2%; the viability, T/C (second compound 0.0316 µM, first compound 3.16 µM) is 8.63%; the viability, T/C (second compound 0.0316 µM, first compound 10 µM) is 7.04%. For the same molecule, the viability, T/C under setting [9] was 81.9%; the viability, T/C (second compound 0.1 µM, first compound 0.1 µM) is 55.6%; the viability, T/C under setting [10] is 40.1%; the viability, T/C (second compound 0.1 µM, first compound 1 µM) is 13.4%; the viability, T/C (second compound 0.1 µM, first compound 3.16 µM) is 8.84%; the viability, T/C (second compound 0.1 µM, first compound 10 µM) is 6.64%. For the same molecule, the viability, T/C by setting is: under setting [11], 71.9%; (second compound 0.316 µM, first compound 0.1 µM) 54.7%; under setting [12], 53.2%; (second compound 0.316 µM, first compound 1 µM) 12%; (second compound 0.316 µM, first compound 3.16 µM) 7.77%; (second compound 0.316 µM, first compound 10 µM) 6.81%. For the same molecule, the viability, T/C is, setting by setting: under setting [13], 76.5%; (second compound 1 µM, first compound 0.1 µM) 54.2%; under setting [14], 45.2%; (second compound 1 µM, first compound 1 µM) 10.6%; (second compound 1 µM, first compound 3.16 µM) 8.22%; (second compound 1 µM, first compound 10 µM) 6.71%. Moreover, the viability, T/C reads like this: under setting [15], 74.5%; (second compound 3.16 µM, first compound 0.1 µM) 53.2%; under setting [16], 50.2%; (second compound 3.16 µM, first compound 1 µM) 11.6%; (second compound 3.16 µM, first compound 3.16 µM) 8.23%; (second compound 3.16 µM, first compound 10 µM) 7.07%. For the same molecule, the viability, T/C was 73% under setting [17]; 47.9% (second compound 10 µM, first compound 0.1 µM); 48.8% under setting [18]; 10.1% (second compound 10 µM, first compound 1 µM); 7.69% (second compound 10 µM, first compound 3.16 µM); 8.66% (second compound 10 µM, first compound 10 µM).

For the molecule `COc1ccc([C@@H](O)c2cc(-c3ncnc4cc(N5CCOCC5)ccc34)c(F)cc2Cl)nn1`, the viability, T/C was 106% and 108% and 100% (compound 0.0316 µM); 90.5% and 103% and 89.7% (compound 0.1 µM); 105% (2×) and 86% (compound 0.316 µM); 82.6% and 98.4% and 79.4% (compound 1 µM); 70.2% and 85.2% and 62% (compound 3.16 µM); 56.8% and 59.8% and 48.4% (compound 10 µM). Further, the IC50 (curve of compound) was > 10 µM and 8.85 µM.

With `CN(C)c1ccc(Nc2c3ccc(NC(=O)CCN4CCCC4)cc3nc3cc(NC(=O)CCN4CCCC4)ccc23)cc1`, the viability, T/C (compound 0.0316 µM) is 104% [middle of 12 runs]; the viability, T/C (compound 0.1 µM) is 105% [middle of 12 runs]; the viability, T/C (compound 0.316 µM) was 106% [middle of 12 runs]; the viability, T/C (compound 1 µM) was 103% [middle of 12 runs]; the viability, T/C (compound 3.16 µM) is 88.4% [middle of 12 runs]; the viability, T/C (compound 10 µM) was 74.7% [middle of 12 runs]. For the same molecule, where the note is “compound alone, run of 02/26/2024”, the IC50 is greater than 10 µM.

For `CC1COCCN1c1cc(-c2ccnn2C)c2ccnc(-c3ccn[nH]3)c2n1` (centres undefined), the viability, T/C was 75.8% and 95.2% and 75.5% (compound 0.0316 µM); 52.4% and 84.3% and 52.1% (compound 0.1 µM); 50.2% and 75.8% and 40.3% (compound 0.316 µM); 46.9% and 63.2% and 44.1% (compound 1 µM); 55.8% and 55.3% and 45.5% (compound 3.16 µM); 51.8% and 61.9% and 43.6% (compound 10 µM).

One may read the IC50 as the midpoint of a concentration-inhibition curve. In general, viability, T/C refers to the ratio of treated to control.
